What all share (assay type): cell-based, human
The test system of assay [1] is HAS2. The assay is described as follows: HAS2 gene expression by dermal fibroblasts (qPCR). Conditions: TGF-β1 10 ng/ml. From the text: (§1) A normal adult skin biopsy (6 mm) was obtained (n=1), with informed consent, from an individual attending the Oral Surgery Clinic, School of Dentistry, Wales College of Medicine, Cardiff. Following the application of a local anaesthetic, the dermal biopsy was collected and adult dermal fibroblast cultures established by single cell suspension technique, following enzymic degradation of the specimen. This technique has previously been reliably used to establish viable primary cultures of both oral and dermal fibroblasts in vitro (Cook et al, 2000; Stephens et al, 2001; 2003). Dermal fibroblasts were cultured in Fibroblast-Serum Containing Medium, containing Dulbecco's Modified Eagle's Medium (DMEM), supplemented with L-glutamine (2 mM), antibiotics (100 U/ml) penicillin G sodium, […] streptomycin sulphate and 0.25 μg/ml amphotericin B) and 10% foetal calf serum (all purchased from Invitrogen Ltd., Paisley, U.K.). Dermal fibroblast cultures were maintained at 37° C., in a 5% CO2/95% air atmosphere, with the culture medium being changed every 2-3 days. Dermal fibroblasts were used between) passage 7-17, for all experiments.
(§2) Following trypsinization, dermal fibroblasts were seeded in 24-well tissue culture plates, in PEP005-free, Fibroblast-Serum Containing Medium (1 ml), at a cell density of 2.5×10^4 cell/well. Dermal fibroblasts were maintained at 37° C., in a 5% CO2/95% air atmosphere, overnight. At this stage, the culture medium was replaced with Fibroblast-Serum Containing Medium (600 μl), containing 0 μg/ml, 0.01 μg/ml, 0.1 μg/ml, 1 μg/ml, 10 μg/ml or 100 μg/ml PEP005, +/−TGF-β1 (10 ng/ml) (three culture wells per PEP005 concentration). A control was also established, consisting of cells in Fibroblast-Serum Containing Medium, containing 1% DMSO. The dermal fibroblasts were maintained at 37° C., in a 5% CO2/95% air atmosphere, for 24 h or 72 h, prior to washing in PBS (3×1 ml) and Trizol® Reagent (250 μl) added to the cells, for 5 min at room temperature, to induce cell lysis. RNA was extracted by the phenol-chloroform method, as described above, while a cDNA library was generated via random hexamer RT, as described above. RNA (1 μg) was added to 100 µM random hexamer (1 μl), 5×RT Buffer (4 μl), 2.5 mM Deoxynucleoside Triphosphates (dNTPs, 5 μl), 2 μl DTT and Nuclease-Free Water, were added to the reaction (total volume, 20 μl). To denature the RNA, reaction tubes were placed in a GeneAmp PCR System 9700 (Applied Biosystems, Cheshire, U.K.) and heated for 5 min/95° C., prior to cooling to 4° C. Superscript (1 μl) and RNAsin® Ribonuclease Inhibitor (1 μl, Promega, Hampshire, U.K.) were added to each tube, and the tubes subjected to […] at 20° C. for 10 min, 42° C. for 1 h and 95° C. for 5 min, prior to storage at 4° C., until required. As a negative control, RT was also performed, with Nuclease-Free Water replacing the RNA sample.
(§3) qPCR was performed, as described above, with the probe and primers for HAS1, HAS2 and HAS3 (target genes) and the 18s ribosomal RNA (reference gene), designed and supplied by Applied Biosystems. PCR was performed in a final volume of 20 μl/sample, with each reaction mix consisting of cDNA (1 μl), target gene primers and probe (1 μl), Taqman® FAST Universal PCR Master Mix (10 μl, Applied Biosystems), and Nuclease-Free Water (8 μl). PCR amplification was performed, using an initial cycle of 95° C. for 1 s, followed by 40 cycles of 60° C. for 20 s. A cDNA-free control was also included. Again, the comparative CT method was used for relative quantification of gene expression. Each experiment was performed on three separate occasions.
For orientation: Quantitative PCR measures a nucleic acid by following its amplification.

The test system of assay [2] is dermal fibroblasts. In words: Hyaluronan synthesis by dermal fibroblasts (Hyaluronic Acid Quantitative Test Kit). Conditions: TGF-β1 10 ng/ml, absence of PEP005, 24 h.
Description: as §1
Following trypsinization, dermal fibroblasts were seeded in 24-well tissue culture plates in PEP005-free, Fibroblast-Serum Containing Medium (1 ml), at a cell density of 2.5×10^4 cell/well. Dermal fibroblasts were maintained at 37° C., in a 5% CO2/95% air atmosphere, for 48 h, prior to maintenance in serum-free, Fibroblast-Serum Containing Medium (1 ml), for a further 48 h. At this stage, the serum-free, culture medium was replaced with Fibroblast-Serum Containing Medium (600 μl), containing 0 μg/ml, 0.01 μg/ml, 0.1 μg/ml, 1 μg/ml, 10 μg/ml or 100 μg/ml PEP005, +/−TGF-β1 (10 ng/ml) (three culture wells per PEP005 concentration). A control was also established, consisting of cells in serum-free, Fibroblast-Serum Containing Medium, containing 1% DMSO. The dermal fibroblasts were maintained at 37° C., in a 5% CO2/95% air atmosphere, for 24 h or 72 h, prior to culture medium removal. Hyaluronan synthesis in the collected culture media was quantified, using a Hyaluronic Acid Quantitative Test Kit (Corgenix U.K. Ltd., Cambridgeshire, U.K.), which utilizes a naturally occurring bovine binding protein to hyaluronan. Supernatants were assayed, as per manufacturer's instructions, and optical density measured using a spectrophotometer at 450 nm. Hyaluronan concentrations were determined by comparing the absorbance of the sample against a reference curve prepared from the reagent blank and standards. Each experiment was performed on three separate occasions.

Assay [3] deals with dermal fibroblasts. The assay is described as follows: Hyaluronan pericellular coat formation by dermal fibroblasts (particle exclusion assay). Conditions: TGF-β1 10 ng/ml, absence of PEP005, 24 h.
Description: as §1
Following trypsinization, dermal fibroblasts were seeded in 53 mm bacteriological grade culture dishes (VWR International Ltd., Leicestershire, U.K.), in PEP005-free, Fibroblast-Serum Containing Medium (2 ml), at a density of 7×10^4 cell/dish. Dermal fibroblasts were maintained at 37° C., in a 5% CO2/95% air atmosphere, overnight, prior to washing in PBS (2×2 ml) and maintenance in serum-free, Fibroblast-Serum Containing Medium (2 ml), containing 0 μg/ml, 0.01 μg/ml, 0.1 μg/ml, 1 μg/ml, 10 μg/ml or 100 μg/ml PEP005, +/−TGF-β1 (10 ng/ml) (three culture dishes per PEP005 concentration). A control was also established, consisting of cells in serum-free, Fibroblast-Serum Containing Medium, containing 1% DMSO. The dermal fibroblasts were maintained at 37° C., in a 5% CO2/95% air atmosphere, for 24 h or 72 h. At 24 h and 72 h, the culture dishes were treated with formalized horse blood erythrocytes (TCS Biosciences Ltd., Buckinghamshire, U.K.). The formalized horse blood erythrocytes were washed in PBS, to remove sodium azide (3×20 ml) and centrifuged at 100 g/7 min, at 4° C. The erythrocyte cell pellet obtained was re-suspended in serum-free, Fibroblast-Serum Containing Medium, to a density of 1×10^8 cells/ml. Aliquots of the erythrocyte cell suspension (500 μl) were supplemented to each culture dish and the dishes agitated, prior to maintenance at 37° C., in a 5% CO2/95% air atmosphere, for 15 min. Zones of erythrocyte exclusion were visualized by light microscopy, using a Zeiss Axiovery 135 Inverted Microscope (Carl Zeiss Ltd., Hertfordshire, U.K.), with a Hamamatsun C5985 chilled CCD camera (Hamamatsu Photonics U.K. Ltd., Hertfordshire, U.K.) and using Openlab Software 3.0.8 (Improvision Ltd., Warwickshire, U.K.). Each experiment was performed on three separate occasions.

The subject of assay [4] is HAS1. In words: HAS1 gene expression by dermal fibroblasts (qPCR). Conditions: TGF-β1 10 ng/ml.
Description: as §1, §2, §3

Assay [5] has as its system HAS3. In words: HAS3 gene expression by dermal fibroblasts (qPCR). Conditions: TGF-β1 10 ng/ml.
Description: as §1, §2, §3

Consider “TGF-β1: TGF-β1 (10 ng/ml) added to dermal fibroblast cultures with or without PEP005 [reference compound]”, for which the HAS2 expression result in assay [1] (absence of PEP005, 24 h) is on record as “little effect”; in assay [1] (absence of PEP005, 72 h (p>0.05)), “minimal effects”. Also, the hyaluronan synthesis entry in assay [2] is “slight stimulation”. For the same substance, the “hyaluronan pericellular coat formation” value in assay [3] was “slight increase”. For the same substance, the HAS1 expression result in assay [4] (absence of PEP005, 24 h, compared to control fibroblasts (p<0.001)) was “major up-regulation”; in assay [4] (absence of PEP005, 72 h, compared to control fibroblasts) it was “up-regulation”. Besides, the HAS3 expression entry in assay [5] (absence of PEP005, 24 h (p<0.01)) is “inhibitory effect”; in assay [5] (absence of PEP005, 72 h), “inhibitory effect”.

The values above are taken from US10143638B2, “Method of treating skin with ingenol mebutate” (LEO Laboratories Limited, priority 2009, dated 2018).
